For four compounds, inhibition and IC50 results are on record in patent publication US10899737B2, “Piperazine carbamates and methods of making and using same” (Lundbeck La Jolla Research Center, Inc., priority 2016, dated 2021).

What is called IC50 is the point on the concentration scale where inhibition reaches its midpoint. A high value points to lower potency.

A value given as a limit tells only on which side of the number the result lay.

In test [1] the target is T1, MAGL (Mus musculus, UniProt O35678).
T1 construct: Proteomes (mouse brain membrane fraction or cell lysates); from tissue; host or cells: mouse brain membrane fraction or cell lysates
T1 sequence (O35678 1-303): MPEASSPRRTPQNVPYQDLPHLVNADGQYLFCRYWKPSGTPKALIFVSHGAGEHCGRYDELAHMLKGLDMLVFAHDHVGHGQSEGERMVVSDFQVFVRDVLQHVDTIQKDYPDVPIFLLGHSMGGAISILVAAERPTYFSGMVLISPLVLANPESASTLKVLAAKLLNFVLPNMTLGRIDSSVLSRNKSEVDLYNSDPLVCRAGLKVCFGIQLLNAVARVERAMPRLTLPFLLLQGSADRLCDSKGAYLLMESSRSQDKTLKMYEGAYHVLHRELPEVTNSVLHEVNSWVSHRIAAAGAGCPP
Put plainly: Mouse brain proteomes from inhibitor treated mice, MAGL inhibition. The following applies: 5 mg/kg oral gavage, C57Bl/6J mouse brain, 4 h following administration; read-out: MAGL % inh. 5 mg/kg (mouse). It counts as in vivo. The procedure: Preparation of Mouse Brain Proteomes from Inhibitor Treated Mice.
Inhibitors were administered to wild-type C57Bl/6J by oral gavage in a vehicle of polyethylene glycol. Each animal was sacrificed 4 h following administration and brain proteomes were prepared and analyzed according to previously established methods (See Niphakis, M. J., et al. (2011) ACS Chem. Neurosci. and Long, J. Z., et al. Nat. Chem. Biol. 5:37-44).

The target of test [2] is T2, ABHD6 (Homo sapiens, UniProt Q9BV23).
T2 construct: Proteomes (human prefrontal cortex or cell membrane fractions); endogenous in cells; human prefrontal cortex
T2 sequence (Q9BV23 1-337): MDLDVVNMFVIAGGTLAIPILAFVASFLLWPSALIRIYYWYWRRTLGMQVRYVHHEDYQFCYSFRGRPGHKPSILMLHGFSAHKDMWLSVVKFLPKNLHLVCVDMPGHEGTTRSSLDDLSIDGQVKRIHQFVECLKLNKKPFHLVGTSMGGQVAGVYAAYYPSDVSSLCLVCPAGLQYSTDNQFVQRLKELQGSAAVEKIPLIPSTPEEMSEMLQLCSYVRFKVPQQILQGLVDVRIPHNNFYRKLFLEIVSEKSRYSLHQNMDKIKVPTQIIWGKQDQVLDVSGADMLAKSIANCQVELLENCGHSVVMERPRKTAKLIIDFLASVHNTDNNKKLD
Nature of the test: In vitro competitive activity-based protein profiling (human), ABHD6. It counts as biochemical. The following applies: human PC3. A digest of the protocol: (§1)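 Human prefrontal cortex or cell membrane proteomes (1.0-2.0 mg/mL protein) preincubated 30 min at 37° C with inhibitor, then labeled 30 min RT with FP-Rh or JW912 probe. After SDS-PAGE, activity taken from fluorescent band intensity for each enzyme.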

Test [3] addresses T1, MAGL. Nature of the test: In vitro competitive activity-based protein profiling (mouse), MAGL. It counts as biochemical. The following applies: 1 μM inhibitor, mouse brain membrane fraction or cell lysates; read-out: MAGL % inh. 1 μM (mouse). In outline:
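Mouse brain membrane fraction or cell lysate proteomes (50 μL, 1.0 mg/mL total protein) were preincubated with inhibitors at varying concentrations for 30 min at 37° C. FP-Rh (1.0 μL, 50 μM in DMSO) was then added for a further 30 min at 37° C. Samples were quenched with 4× SDS loading buffer and resolved by SDS-PAGE. MAGL activity was quantified from fluorescent gel band intensity using ImageJ 1.49 k.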

In test [4] the target is T3, ABHD6 (Mus musculus, UniProt Q8R2Y0).
T3 construct: Proteomes (mouse brain membrane fraction or cell lysates); from tissue; host or cells: mouse brain membrane fraction or cell lysates
T3 sequence (Q8R2Y0 1-336): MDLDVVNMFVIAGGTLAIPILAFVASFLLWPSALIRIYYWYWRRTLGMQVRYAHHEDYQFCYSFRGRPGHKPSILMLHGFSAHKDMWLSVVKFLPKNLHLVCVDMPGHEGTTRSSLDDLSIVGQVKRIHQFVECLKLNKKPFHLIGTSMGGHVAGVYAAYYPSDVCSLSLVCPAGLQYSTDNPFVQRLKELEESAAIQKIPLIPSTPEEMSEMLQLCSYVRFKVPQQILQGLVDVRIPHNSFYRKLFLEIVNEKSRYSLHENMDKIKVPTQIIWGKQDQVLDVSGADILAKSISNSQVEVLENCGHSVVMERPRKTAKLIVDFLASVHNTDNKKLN
Put plainly: In vitro competitive activity-based protein profiling (mouse), ABHD6. It counts as biochemical. The note with it: 1 μM inhibitor, mouse brain membrane fraction or cell lysates; read-out: ABHD6 % inh. 1 μM (mouse). In outline:
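Mouse brain membrane proteome or cell lysate (1.0 mg/mL protein) preincubated 30 min at 37 °C with inhibitor, then labelled 30 min at 37 °C with FP-rhodamine probe. Remaining MAGL and ABHD6 activity quantified by in-gel fluorescence band intensity after SDS-PAGE; values are % inhibition at 1 μM.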

The target in test [5] is T4, MAGL (Homo sapiens, UniProt Q99685).
T4 construct: Proteomes (human prefrontal cortex or cell membrane fractions); from tissue
T4 sequence (Q99685 1-303): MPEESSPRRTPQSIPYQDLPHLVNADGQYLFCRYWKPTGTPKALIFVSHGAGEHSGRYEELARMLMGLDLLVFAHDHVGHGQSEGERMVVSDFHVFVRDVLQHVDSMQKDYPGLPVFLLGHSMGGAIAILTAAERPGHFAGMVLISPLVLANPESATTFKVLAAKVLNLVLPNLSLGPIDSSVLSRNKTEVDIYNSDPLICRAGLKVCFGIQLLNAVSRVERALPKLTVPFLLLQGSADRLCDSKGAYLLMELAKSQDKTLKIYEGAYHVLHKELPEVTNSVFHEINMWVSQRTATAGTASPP
Put plainly: In vitro competitive activity-based protein profiling (human), MAGL. The format is biochemical. The note with it: for inhibition at 1 µM: 1 μM inhibitor, human proteome, 30 min preincubation at 37° C, read-out: MAGL % inh. 1 μM (human); for IC50: human PC3. In outline:
as §1

For `O=C(O)c1csc(-c2cc(C(F)(F)F)ccc2CN2CCN(C(=O)OC(C(F)(F)F)C(F)(F)F)CC2)c1` [Example 10, 5-(2-((4-(((1,1,1,3,3,3-Hexafluoropropan-2-yl)oxy)carbonyl)piperazin-1-yl)methyl)-5-(trifluoromethyl)phenyl)thiophene-3-carboxylic Acid], the inhibition at 5 mg/kg at MAGL [1] lay within 0 to 25%. Further, the results for the half-maximal inhibitory concentration (IC50) on ABHD6 [2] and at MAGL [5] were 1 to 10 µM and not above 0.1 µM, respectively. In addition, the inhibition at 1 µM at MAGL [3], on ABHD6 [4] and on MAGL [5] was not below 75% in each case.

`O=C(O)[C@@H]1CCCN(c2cc(C(F)(F)F)ccc2CN2CCN(C(=O)OC(C(F)(F)F)C(F)(F)F)CC2)C1` [Example 70, (R)-1-(2-((4-(((1,1,1,3,3,3-hexafluoropropan-2-yl)oxy)carbonyl)piperazin-1-yl)methyl)-5-(trifluoromethyl)phenyl)piperidine-3-carboxylic acid]: the inhibition at 5 mg/kg on MAGL [1] is not below 75%. For the same compound, the IC50 on ABHD6 [2] is 1 to 10 µM; on MAGL [5] it was not above 0.1 µM. Further, the inhibition at 1 µM at MAGL [3] is not below 75%; on ABHD6 [4], 0 to 25%; on MAGL [5], not below 75%.

With `CC1(C(=O)O)CCN(c2cc(Cl)ccc2CN2CCN(C(=O)OC(C(F)(F)F)C(F)(F)F)CC2)CC1` [Example 63, 1-(5-chloro-2-((4-(((1,1,1,3,3,3-hexafluoropropan-2-yl)oxy)carbonyl)piperazin-1-yl)methyl)phenyl)-4-methylpiperidine-4-carboxylic acid], the inhibition at 5 mg/kg on MAGL [1] is not below 75%. Further, the IC50 on ABHD6 [2] is 0.1 to 1 µM; at MAGL [5] it was not above 0.1 µM. The inhibition at 1 µM on MAGL [3] is not below 75%; on ABHD6 [4], 50 to 75%; on MAGL [5] it was not below 75%.

For the compound `O=C(O)C1CCN(c2cc(S(F)(F)(F)(F)F)ccc2CN2CCN(C(=O)OC(C(F)(F)F)C(F)(F)F)CC2)CC1` [Example 78, 1-(2-((4-(((1,1,1,3,3,3-hexafluoropropan-2-yl)oxy)carbonyl)piperazin-1-yl)methyl)-5-(pentafluoro-16-sulfaneyl)phenyl)piperidine-4-carboxylic acid], at MAGL [1], the inhibition at 5 mg/kg is not below 75%. The results for the IC50 at ABHD6 [2] and on MAGL [5] were 1 to 10 µM and not above 0.1 µM, respectively. The inhibition at 1 µM on MAGL [3], on ABHD6 [4] and at MAGL [5] was not below 75% each time.
